Assay results taken from patent US20110130427A1, “PESTICIDAL COMPOSITION” (ISHIHARA SANGYO KAISHA, LTD., priority 2008, published 2011).

How the values were obtained:
[1] = tested on: serpentine leaf miner (Liriomyza trifolii); assay: Test Example 1: controlling effects against serpentine leaf miner, Example 1 dilution with polyoxyethylene alkyl ether phosphoric acid ester; format: in vivo
Procedure: (§1) The above components are mixed, and the obtained solution is diluted 2,000 times or 4,000 times with water containing a polyoxyethylene alkyl ether phosphoric acid ester, followed by spraying (active ingredient concentration: 25 ppm or 12.5 ppm).
Kidney bean planted in a pot having a diameter of 7 cm was put in a breeding case wherein adults of serpentine leaf miner (Liriomyza trifolii) were released and permitted to lay eggs for 2 days. Thereafter, the test plant was taken out and left for 1 day, and then, a water-diluted liquid containing 100 ppm or 250 ppm of the polyoxyethylene alkyl ether phosphoric acid ester prepared in the above Example 1, was sprayed twice on each of the front and rear sides of the Kidney bean leaf by means of a hand spray. After drying in air, the Kidney bean was left to stand for 5 days in an illuminated constant temperature chamber at 25° C., whereupon the number of pupae on each leaf was counted, and the protective value was calculated by the following formula. The test was repeated twice. As the polyoxyethylene alkyl ether phosphoric acid ester, PHOSPHANOL RD-510Y, PHOSPHANOL RS-610 and PHOSPHANOL RS-710 (manufactured by Toho Chemical Industry Co., Ltd.) and ADEKA COL PS-440E (manufactured by ADEKA) were used.
(§2) For the purpose of comparison, a water-diluted liquid having no polyoxyethylene alkyl ether phosphoric acid ester added, was prepared, and spray treatment was carried out in the same manner.
(§3) Protective value (%)=(1−(the number of pupae at treated section/the number of pupae at untreated section))×100

serpentine leaf miner [2] = assay: Test Example 3: controlling effects against serpentine leaf miner, liquid composition of Example 4 diluted with water; format: in vivo, Liriomyza trifolii
Procedure: […] of Compound 1 and 20.0 g of a polyoxyalkylene phosphoric acid ester surfactant are dissolved in 74.7 g of N,N-dimethylacetamide to obtain 100 g of a transparent liquid composition containing 5 wt % of Compound 1.
as §3
Kidney bean planted in a pot having a diameter of 7 cm was put in a breeding case wherein adults of serpentine leaf miner were released and permitted to lay eggs for 2 days. Thereafter, the test plant was taken out and left for 2 days, the liquid composition obtained in accordance with the above Example 4 was diluted with water to prepare a test liquid containing 50 ppm or 100 ppm of the polyoxyalkylene phosphoric acid ester surfactant. Each test liquid was a suspension solution having fine particles uniformly dispersed. The suspension solution was sprayed twice on each of the front and rear sides of the Kidney bean leaf by means of a hand spray. After drying in air, the Kidney bean was left to stand for 5 days in an illuminated constant temperature chamber at 25° C., whereupon the number of pupae on each leaf was counted, and the protective value was calculated in the same manner as in Test Example 1. The test was repeated twice. As the polyoxyalkylene phosphoric acid ester surfactant, ADEKA COL PS-440E (manufactured by ADEKA) and PHOSPHANOL RS-610 (manufactured by Toho Chemical Industry, Co., Ltd.) as polyoxyethylene alkyl ether phosphoric acid esters, and ADEKA COL CS-1361E (manufactured by ADECA) as a polyoxyethylene arylether phosphoric acid ester were used.
as §2

serpentine leaf miner [3] = assay: Test Example 2: controlling effects against serpentine leaf miner, Example 1 dilution with polyoxyethylene arylether phosphoric acid ester; format: in vivo, Liriomyza trifolii
Procedure: as §1, §3
Kidney bean planted in a pot having a diameter of 7 cm was put in a breeding case wherein adults of serpentine leaf miner were released and permitted to lay eggs for 2 days. Thereafter, the test plant was taken out and left for 1 day, and then, a water-diluted liquid containing 50 ppm of a polyoxyethylene arylether phosphoric acid ester, prepared by replacing the polyoxyethylene alkyl ether phosphoric acid ester in the above Example 1 by a polyoxyethylene arylether phosphoric acid ester, was sprayed twice on each of the front and rear sides of the Kidney bean leaf by means of a hand spray. After drying in air, the Kidney bean was left to stand for 5 days in an illuminated constant temperature chamber at 25° C., whereupon the number of pupae on each leaf was counted, and the protective value was calculated in the same manner as in Test Example 1. The test was repeated twice. As the polyoxyethylene arylether phosphoric acid ester, and ADEKA COL CS-1361E (manufactured by ADEKA) was used.
For the purpose of comparison, a water-diluted liquid n having no polyoxyethylene arylether phosphoric acid ester added, was prepared, and spray treatment was carried out in the same manner.

Measured: Protective value (%)

CC(NC(=O)c1cc(Cl)cc(Br)c1NC(=O)c1cc(Br)nn1-c1ncccc1Cl)C1CC1 (stereo not drawn) [Compound 1, 3-Bromo-N-(2-bromo-4-chloro-6-(1-cyclopropylethylcarbamoyl)phenyl)-1-(3-chloropyridin-2-yl)-1H-pyrazole-5-carboxamide]
89%: serpentine leaf miner [2]; Compound 1 12.5 ppm + RS-610 50 ppm (Example 4 composition), foliar spray on Kidney bean, pupae counted after 5 days
70%: [1]; Compound 1 12.5 ppm + RD-510Y 250 ppm, foliar spray on Kidney bean, pupae counted after 5 days
50%: serpentine leaf miner [3]; Compound 1 25 ppm, no polyoxyethylene arylether phosphoric acid ester (comparative section)
0%: [1]; Compound 1 12.5 ppm, no polyoxyethylene alkyl ether phosphoric acid ester (comparative section) | [1]; Compound 1 25 ppm, no polyoxyethylene alkyl ether phosphoric acid ester (comparative section) | serpentine leaf miner [2]; Compound 1 12.5 ppm, no polyoxyalkylene phosphoric acid ester surfactant (comparative section) | serpentine leaf miner [3]; Compound 1 12.5 ppm, no polyoxyethylene arylether phosphoric acid ester (comparative section)
46%: serpentine leaf miner [2]; Compound 1 25 ppm, no polyoxyalkylene phosphoric acid ester surfactant (comparative section)
77%: serpentine leaf miner [2]; Compound 1 12.5 ppm + PS-440E 50 ppm (Example 4 composition), foliar spray on Kidney bean, pupae counted after 5 days
100%: [1]; Compound 1 12.5 ppm + PS-440E 100 ppm, foliar spray on Kidney bean, pupae counted after 5 days | [1]; Compound 1 12.5 ppm + PS-440E 250 ppm, foliar spray on Kidney bean, pupae counted after 5 days | [1]; Compound 1 12.5 ppm + RS-610 250 ppm, foliar spray on Kidney bean, pupae counted after 5 days | [1]; Compound 1 12.5 ppm + RS-710 250 ppm, foliar spray on Kidney bean, pupae counted after 5 days | [1]; Compound 1 25 ppm + PS-440E 100 ppm, foliar spray on Kidney bean, pupae counted after 5 days | [1]; Compound 1 25 ppm + PS-440E 250 ppm, foliar spray on Kidney bean, pupae counted after 5 days | [1]; Compound 1 25 ppm + RD-510Y 250 ppm, foliar spray on Kidney bean, pupae counted after 5 days | [1]; Compound 1 25 ppm + RS-610 250 ppm, foliar spray on Kidney bean, pupae counted after 5 days | [1]; Compound 1 25 ppm + RS-710 250 ppm, foliar spray on Kidney bean, pupae counted after 5 days | serpentine leaf miner [2]; Compound 1 25 ppm + CS-1361E 100 ppm (Example 4 composition), foliar spray on Kidney bean, pupae counted after 5 days | serpentine leaf miner [3]; Compound 1 12.5 ppm + CS-1361E 50 ppm, foliar spray on Kidney bean, pupae counted after 5 days | serpentine leaf miner [3]; Compound 1 25 ppm + CS-1361E 50 ppm, foliar spray on Kidney bean, pupae counted after 5 days
